How the values were obtained:
CD34 cells = test: Transition metal chelators in CD34+ cell liquid cultures (cell number, CD34 cells, clonability); assay type: cell-based, human
Experimental: The interphase layer of mononuclear cells were collected, washed three times with Ca/Mg free phosphate buffered saline containing 1% bovine serum albumin (BSA). The cells were incubated for 30 min. at 4° C. with murine monoclonal anti CD34 antibody (0.5 μg/10^6 mononuclear cells) and thereafter isolated using the miniMACS apparatus (Miltenyi-Biotec, Bergisch, Gladbach, Germany) according to the manufacturer's protocol.
Culture procedures: For the expansion of progenitor cells, CD34^+ enriched fractions or unseparated mononuclear cells were seeded at about 1-3×10^4 cells/ml in either alpha minimal essential medium containing 10% preselected fetal calf serum (FCS) (both from GIBCO, Grand Island, N.Y.), or serum-free medium (Progenitor-34 medium, Life Technologies, Grand Island, N.Y.). The media were supplemented with a mixture of growth factors and transition metal chelators. The cultures were incubated at 37° C. in an atmosphere of 5% CO2 in air with extra humidity. Half of the medium was changed weekly with fresh medium containing all the supplements.
Cloning potential evaluations: The cloning potential of cells developed in the liquid culture was assayed, at different intervals, in semi-solid medium. The cells were washed and seeded in 35 mm dishes in methylcellulose containing alpha medium supplemented with recombinant growth factors (SCF, G-CSF, GM-CSF and EPO). Following 2 weeks incubation, the cultures were scored with an inverted microscope. Colonies were classified as blast, mixed, erythroid, myeloid, and megakaryocytic, according to their cellular composition.
Morphological assessment: In order to characterize the resulting culture populations, aliquots of cells were deposited on a glass slide (cytocentrifuge, Shandon, Runcorn, UK), fixed and stained in May-Grunwald Giemsa. Other aliquots were stained by benzidine for intracellular hemoglobin.
Immunofluorescence staining: At different intervals, cells from the liquid cultures were assayed for CD34 antigen. Aliquots were harvested, washed and incubated on ice with FITC-labeled anti CD45 monoclonal antibody and either PE-labeled anti CD34 (HPCA-2) monoclonal antibody or PE-labeled control mouse Ig. After incubation, red cells were lysed with lysing solution, while the remaining cells were washed and analyzed by flow cytometer.
Flow cytometry: Cells were analyzed and sorted using FACStar^plus flow cytometer (Becton-Dickinson, Immunofluorometry systems, Mountain View, Calif.). Cells were passed at a rate of 1,000 cells/second through a […] nozzle, using saline as the sheath fluid. […] The PMTs was set at the appropriate voltage. Logarithmic amplification was applied for measurements of fluorescence and linear amplification—for forward light scatter. At least 10^4 cells were analyzed.
Cord blood-derived CD34 cells were plated in liquid culture in the presence of: FL—50 ng/ml, SCF—50 ng/ml, IL-6—50 ng/ml, with or without IL-3—20 ng/ml, with or without TEPA—10 μM. On day 7, the percentage of CD34 cells and the total cell number were determined. Aliquots equivalent to 1×10^3 initiating cells were assayed on days 0 and 7 for colony forming cells (CFU) by cloning in semi-solid medium. CFU expansion represents the ratio of CFU present on day 7 to CFU present on day 0.
CD34^+ cells derived from human neonatal cord blood were purified by immunomagnetic method and then cultured in liquid medium supplemented with cytokines either with or without transition metal chelators. At weekly intervals, the cultures were demi-depopulated by removing half of the culture content (supernatant and cells) and replacing it with fresh medium, cytokines and the chelators. At the indicated weeks the cellular content of the cultures were quantified for total cells (by a manual microscopic/hemocytometric method), for CD34^+ cells (by immuno-flow cytometry) and for clonogenic cells (by cloning the cells in cytokine-supplemented semi-solid medium).

HL-60 cells = test: Copper determination in chelator treated cells (atomic absorption); assay type: cell-based, human
Experimental: Copper Determination: Cells were harvested by centrifugation at 1000×g for 5 minutes. The cell pellet was washed three times by re-suspending the cells in PBS (Ca^++ and Mg^++ free) and centrifugation at 1000×g. An aliquot containing 2×10^6 cells was then transferred into a metal-free Eppendorf tube and the cells were recovered by centrifugation at 1000×g. The cell pellet was re-suspended in 0.03 M ultra-pure nitric acid to give a concentration of 1×10^7 cells/ml. The cells were homogenized with a high shear mixer (polytron, Kinematica, Switzerland) for 1 minutes to disrupt the cell and release intracellular copper content. Cell samples were vortexed before transferring to a vial autosampler and analyzed in duplicate by a Perkin Elmer graphite furnace atomic absorption spectrophotometer at a wavelength of 324.7 nm. The samples were analyzed against copper standard solution prepared from a commercial stock solution that was diluted with 0.03 M ultra pure nitric acid.
(§1) FIG. 44 provides the chemical structure of the various chelators employed in these experiments.

[1] = test system: HL-60 (human myeloid leukemia cell line); test: Inhibition / induction of differentiation and growth inhibition of HL-60 cells by chelators; assay type: cell-based; conditions: 1000 nM
From the text: as §1

C1CNCCNCCNCCN1 [1,4,7,10-Tetraaza cyclododecane]
effect on differentiation of CD34+ cells (CD34 cells): stimulate differentiation
Average Intracellular ppb Cu (HL-60 cells; 20 μM chelator): 27.5 ppb
Average Intracellular ppb Cu (HL-60 cells; 100 μM chelator): 73.9 ppb
Average Intracellular ppb Cu (HL-60 cells; 500 μM chelator): Toxic
activity at 20 µM (HL-60 cells; Homo sapiens, HL-60, 20 μM chelator, read-out: Average Intracellular Cu (% of control)): 56%
activity at 100 µM (HL-60 cells; Homo sapiens, HL-60, 100 μM chelator, read-out: Average Intracellular Cu (% of control)): 150%
Differentiation Induction [1]: Toxic
